This is an account of results in US8802654B2, “Antiviral compounds” (Adenovir Pharma AB, priority 2009, dated 2014).

Structures are written as SMILES.

The subject of the assay is HAdV-37 virions. In words: Binding assay: inhibition of the binding of 35S-labeled HAdV-37 virions to HCE cells. The class given is cell-based. As to conditions: monovalent sialic acid, stated for comparison with Table 1. On the procedure: HCE (human corneal epithelial) and A549 cells were grown as previously described (Araki-Sasaki, K., Ohasi, K. Y., Sasabe, T., Hayashi, K., Watanabe, H., Tano, Y., Handa, H., 1995. “An SV-40-immortalized human corneal epithelial cell line and its characterization.” Invest. Ophtahlmol. 36, 614-621 and Amberg, N., Edlund, K., Kidd, A. H., Wadell, G., 2000a. Adenovirus type 37 uses sialic acid as a cellular receptor. J. Virol. 74, 42-48.).
HAdV37 (strain 1477) virions were produced as follows: 0.3 mL of HAdV37 inoculation material (prepared from infected A549 cells) was added to A549 cells (175 cm^2 flasks) and incubated for 2 h at 37° C. […] The specific radioactivity of labeled virions was determined to be 4×10^−6 cpm per virion. The identity of HAdV-37 was determined by digesting viral DNA with restriction enzymes and compared to established patterns for HAdV-37 prototype strain (Wadell, G., Sundell, G., de Jong, J. C., 1981. Characterization of candidate adenovirus 37 by SDS-polyacrylamide gel electrophoresis of virion polypeptides and DNA restriction site mapping. J. Med. Virol. 7, 119-125.). […]
After one additional hour, unbound virions were removed by washing, and the cell-associated radioactivity was measured with a Wallac 1409 scintillation counter (Perkin-Elmer). […]

`CC(=O)N[C@H]1[C@H]([C@H](O)[C@H](O)CO)OC(O)(C(=O)O)C[C@@H]1O` (stereo partly shown) [sialic acid]: the half-inhibitory concentration (IC50) is 2 to 5 mM.
